In US10202370B2, “Benzimidazole derivatives as selective proteine kinase inhibitors” (AB SCIENCE, priority 2013, dated 2019):

Biological target: c-kit WT (Homo sapiens (Human), UniProt P10721)
Assay: Proliferation assay (CellTiter-Blue) on BaF3 Kit WT cell line
Format: cell-based
Settings: BaF3 Kit WT cell line (murine Ba/F3 expressing Human Kit WT, with murine SCF), 48 hours
Summary of the method: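 Ba/F3 cells expressing human Kit WT, maintained in RPMI/10% FCS with 250 ng/ml murine SCF, were seeded at 2.10^4 cells/well and exposed to ½ serial dilutions (0–10 μM) for 48 h at 37° C. Viability was measured by CellTiter-Blue fluorescence (544Ex/590Em, 4 h) in triplicate as % of untreated proliferation.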

Chain of c-kit WT (P10721 26-976): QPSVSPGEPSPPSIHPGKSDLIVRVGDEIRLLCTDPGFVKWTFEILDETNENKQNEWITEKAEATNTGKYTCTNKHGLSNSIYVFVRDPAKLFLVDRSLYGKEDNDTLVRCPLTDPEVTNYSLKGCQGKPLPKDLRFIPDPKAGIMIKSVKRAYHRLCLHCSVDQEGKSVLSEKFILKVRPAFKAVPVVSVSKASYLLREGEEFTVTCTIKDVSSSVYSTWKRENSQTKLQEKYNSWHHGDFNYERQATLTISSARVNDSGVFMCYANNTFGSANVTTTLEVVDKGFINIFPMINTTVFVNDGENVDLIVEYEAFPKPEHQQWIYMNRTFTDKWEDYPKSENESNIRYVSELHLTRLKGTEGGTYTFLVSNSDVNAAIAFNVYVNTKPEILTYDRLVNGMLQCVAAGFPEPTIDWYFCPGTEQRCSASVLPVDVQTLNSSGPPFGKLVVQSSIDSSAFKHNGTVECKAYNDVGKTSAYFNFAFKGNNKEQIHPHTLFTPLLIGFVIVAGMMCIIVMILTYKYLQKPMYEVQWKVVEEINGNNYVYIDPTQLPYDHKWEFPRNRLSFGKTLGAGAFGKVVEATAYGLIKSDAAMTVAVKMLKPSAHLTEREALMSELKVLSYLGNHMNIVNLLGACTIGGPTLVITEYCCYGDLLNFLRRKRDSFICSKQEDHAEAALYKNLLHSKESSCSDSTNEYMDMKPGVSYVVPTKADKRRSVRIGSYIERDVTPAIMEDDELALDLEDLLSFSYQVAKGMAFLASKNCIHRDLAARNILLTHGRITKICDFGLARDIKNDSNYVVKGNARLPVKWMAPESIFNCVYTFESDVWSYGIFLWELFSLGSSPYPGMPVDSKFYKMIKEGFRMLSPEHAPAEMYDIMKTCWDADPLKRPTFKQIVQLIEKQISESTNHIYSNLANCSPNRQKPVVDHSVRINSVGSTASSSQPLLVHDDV

IC50 [µM]	SMILES
≤ 1	Cc1cc2[nH]c(-c3cccc(S(C)(=O)=O)c3)nc2cc1Nc1nc(-c2ccc(C#N)cc2)cs1 [Compound 131, 4-{2-[2-(3-Methanesulfonyl-phenyl)-6-methyl-1H-benzoimidazol-5-ylamino]-thiazol-4-yl}-benzonitrile]
≤ 1	Cc1cc2c(cc1Nc1nc(-c3ccnc(Cl)c3)cs1)nc(-c1cccc(C(F)F)c1)n2C [Compound 119, [4-(2-Chloro-pyridin-4-yl)-thiazol-2-yl]-[2-(3-difluoromethyl-phenyl)-1,6-dimethyl-1H-benzoimidazol-5-yl]-amine]
≤ 1	Cc1cc2[nH]c(-c3cccc(C(C)(C)C)c3)nc2cc1Nc1nc(-c2ccncc2)cs1 [Compound 153, [2-(3-tert-Butyl-phenyl)-6-methyl-1H-benzoimidazol-5-yl]-(4-pyridin-4-yl-thiazol-2-yl)-amine]
≤ 1	Cc1cc2c(cc1Nc1nc(-c3ccc(C#N)cc3)cs1)nc(-c1cc(F)cc(C(F)(F)F)c1)n2C [Compound 138, 4-{2-[2-(3-Fluoro-5-trifluoromethyl-phenyl)-1,6-dimethyl-1H-benzoimidazol-5-ylamino]-thiazol-4-yl}-benzonitrile]
1 to 10	Cc1cc2nc(CN3CCOCC3)[nH]c2cc1Nc1ncc(-c2ccncc2)o1 [Compound 055, (6-Methyl-2-morpholin-4-ylmethyl-3H-benzoimidazol-5-yl)-(5-pyridin-4-yl-oxazol-2-yl)-amine]
≤ 1	Cc1cc2nc(-c3cccc(C(F)(F)F)c3)[nH]c2cc1Nc1nc(-c2ccc(C#N)cc2)cs1 [Compound 070, 4-{2-[6-Methyl-2-(3-trifluoromethyl-phenyl)-3H-benzoimidazol-5-ylamino]-thiazol-4-yl}-benzonitrile]
≤ 1	Cc1cc2c(cc1Nc1nc(-c3cccnc3)cs1)nc(-c1cccc(C(C)(C)C)c1)n2C [Compound 145, [2-(3-tert-Butyl-phenyl)-1,6-dimethyl-1H-benzoimidazol-5-yl]-(4-pyridin-3-yl-thiazol-2-yl)-amine]
1 to 10	C=CS(=O)(=O)Nc1cc(-c2nc3cc(Nc4nc(-c5ccncc5)cs4)c(C)cc3n2C)cc(C(F)(F)F)c1 [Compound 122, Ethenesulfonic acid {3-[1,6-dimethyl-5-(4-pyridin-4-yl-thiazol-2-ylamino)-yl]-5-trifluoromethyl-phenyl}-amide]
1 to 10	Cc1cc2nc(-c3cncn3C)[nH]c2cc1Nc1nc(-c2cccnc2)cs1 [Compound 077, [6-Methyl-2-(3-methyl-3H-imidazol-4-yl)-3H-benzoimidazol-5-yl]-(4-pyridin-3-yl-thiazol-2-yl)-amine]
≤ 1	Cc1ccc(-c2nc3cc(C)c(Nc4nc(-c5cccnc5)cs4)cc3[nH]2)s1 [Compound 078, [6-Methyl-2-(5-methyl-thiophen-2-yl)-3H-benzoimidazol-5-yl]-(4-pyridin-3-yl-thiazol-2-yl)-amine]

The remaining lines, values behind:

SMILES	IC50 [µM]
Cc1cc2nc(-c3cnc4ccccc4c3)[nH]c2cc1Nc1nccc(-c2cccnc2)n1 [Compound 017, (6-Methyl-2-quinolin-3-yl-3H-benzoimidazol-5-yl)-(4-pyridin-3-yl-pyrimidin-2-yl)-amine]	1 to 10
Cc1cc2nc(-c3cc(CN4CCN(C)CC4)cc(C(F)(F)F)c3)[nH]c2cc1Nc1nccc(-c2cccnc2)n1 [Compound 040, {6-Methyl-2-[3-(4-methyl-piperazin-1-ylmethyl)-5-trifluoromethyl-phenyl]-3H-benzoimidazol-5-yl}-(4-pyridin-3-yl-pyrimidin-2-yl)-amine]	1 to 10
Cc1cc2nc(-c3cncc(C(F)(F)F)c3)[nH]c2cc1Nc1nccc(-c2cccnc2)n1 [Compound 042, [6-Methyl-2-(5-trifluoromethyl-pyridin-3-yl)-3H-benzoimidazol-5-yl]-(4-pyridin-3-yl-pyrimidin-2-yl)-amine]	1 to 10
Cc1cc2nc(-c3ccccc3C)[nH]c2cc1Nc1nc(-c2cccnc2)cs1 [Compound 001, (6-Methyl-2-o-tolyl-3H-benzoimidazol-5-yl)-(4-pyridin-3-yl-thiazol-2-yl)-amine]	1 to 10
Cc1cc2nc(-c3cccc(C#N)c3)[nH]c2cc1Nc1nccc(-c2cccnc2)n1 [Compound 013, 3-[5-Methyl-6-(4-pyridin-3-yl-pyrimidin-2-ylamino)-1H-benzoimidazol-2-yl]-benzonitrile]	1 to 10
Cc1cc2nc(-c3cccc(OC(F)(F)F)c3)[nH]c2cc1Nc1nccc(-c2cccnc2)n1 [Compound 037, [6-Methyl-2-(3-trifluoromethoxy-phenyl)-3H-benzoimidazol-5-yl]-(4-pyridin-3-yl-pyrimidin-2-yl)-amine]	1 to 10
Cc1cc2nc(-c3cccc(Cl)c3)[nH]c2cc1Nc1nccc(-c2cccnc2)n1 [Compound 031, [2-(3-Chloro-phenyl)-6-methyl-3H-benzoimidazol-5-yl]-(4-pyridin-3-yl-pyrimidin-2-yl)-amine]	≤ 1
Cc1cc2nc(-c3ccc(CN4CCN(C)CC4)cc3)[nH]c2cc1Nc1ncc(-c2cccnc2)o1 [Compound 006, {6-Methyl-2-[4-(4-methyl-piperazin-1-ylmethyl)-phenyl]-3H-benzoimidazol-5-yl}-(5-pyridin-3-yl-oxazol-2-yl)-amine]	1 to 10
